Reference: ChEMBL document CHEMBL1201862, “PubChem BioAssay data set” (2004)
Calls of active or inactive are those of the source.

What was measured:
[1] = system: HEK293; experiment: inhibitors of LMP1-driven NF-kB reporter, dose response, cell-based, HEK293, luciferase, cherry-pick (AID 588343); type: functional; conditions: Homo sapiens
[2] = system: H9c2; experiment: cells; type: functional, cell-based; conditions: Rattus norvegicus, H9c2, Myocardium;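 note: confirmatory concentration-response retest of ultra-high-throughput screening hits for modulation of myocardial damage; cell death induced by hydrogen peroxide oxidative stress; compound pretreatment for 60 min then peroxide exposure for 2 h; potency is for protecting the cells against peroxide damage rather than for killing them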
[3] = molecular target: Cytochrome P450 3A4 (Homo sapiens, UniProt P08684);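 note: CYP3A4 tested as one member of a cytochrome P450 panel screen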
Sequence of Cytochrome P450 3A4 (P08684 whole entry): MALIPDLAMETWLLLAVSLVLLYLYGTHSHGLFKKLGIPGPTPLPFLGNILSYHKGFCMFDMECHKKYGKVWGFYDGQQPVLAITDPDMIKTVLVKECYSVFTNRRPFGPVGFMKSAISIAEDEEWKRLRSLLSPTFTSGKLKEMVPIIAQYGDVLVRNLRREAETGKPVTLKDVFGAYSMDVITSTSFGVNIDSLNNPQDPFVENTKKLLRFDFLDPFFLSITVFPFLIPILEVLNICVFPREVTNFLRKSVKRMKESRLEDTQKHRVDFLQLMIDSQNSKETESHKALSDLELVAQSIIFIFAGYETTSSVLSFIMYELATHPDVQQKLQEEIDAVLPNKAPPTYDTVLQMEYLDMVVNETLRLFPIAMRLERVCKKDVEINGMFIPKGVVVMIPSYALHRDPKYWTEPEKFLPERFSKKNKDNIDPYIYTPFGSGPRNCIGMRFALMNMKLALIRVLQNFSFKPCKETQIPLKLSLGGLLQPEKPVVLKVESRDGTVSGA

[4] = molecular target: 26S proteasome non-ATPase regulatory subunit 14 (Homo sapiens, UniProt O00487); experiment: inhibition of proteasome subunit RPN11 – biochemical, fluorescence polarization, uHTS hits, confirmation (AID 602368); type: functional
Sequence of 26S proteasome non-ATPase regulatory subunit 14 (O00487 whole entry): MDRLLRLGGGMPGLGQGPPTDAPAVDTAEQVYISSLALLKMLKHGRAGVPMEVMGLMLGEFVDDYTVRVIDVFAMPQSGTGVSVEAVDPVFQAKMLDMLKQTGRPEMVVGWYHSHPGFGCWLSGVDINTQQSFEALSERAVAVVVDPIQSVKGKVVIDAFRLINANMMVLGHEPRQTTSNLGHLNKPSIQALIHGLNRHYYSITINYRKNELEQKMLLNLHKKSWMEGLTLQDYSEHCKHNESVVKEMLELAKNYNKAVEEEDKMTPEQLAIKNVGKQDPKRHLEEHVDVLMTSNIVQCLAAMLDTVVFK

[5] = molecular target: 72 kDa type IV collagenase (Homo sapiens, UniProt P08253); experiment: Dose Response validation of uHTS RPN11 inhibitor hits using a MMP-2 Fluorescence assay.; type: functional
Sequence of 72 kDa type IV collagenase (P08253 whole entry): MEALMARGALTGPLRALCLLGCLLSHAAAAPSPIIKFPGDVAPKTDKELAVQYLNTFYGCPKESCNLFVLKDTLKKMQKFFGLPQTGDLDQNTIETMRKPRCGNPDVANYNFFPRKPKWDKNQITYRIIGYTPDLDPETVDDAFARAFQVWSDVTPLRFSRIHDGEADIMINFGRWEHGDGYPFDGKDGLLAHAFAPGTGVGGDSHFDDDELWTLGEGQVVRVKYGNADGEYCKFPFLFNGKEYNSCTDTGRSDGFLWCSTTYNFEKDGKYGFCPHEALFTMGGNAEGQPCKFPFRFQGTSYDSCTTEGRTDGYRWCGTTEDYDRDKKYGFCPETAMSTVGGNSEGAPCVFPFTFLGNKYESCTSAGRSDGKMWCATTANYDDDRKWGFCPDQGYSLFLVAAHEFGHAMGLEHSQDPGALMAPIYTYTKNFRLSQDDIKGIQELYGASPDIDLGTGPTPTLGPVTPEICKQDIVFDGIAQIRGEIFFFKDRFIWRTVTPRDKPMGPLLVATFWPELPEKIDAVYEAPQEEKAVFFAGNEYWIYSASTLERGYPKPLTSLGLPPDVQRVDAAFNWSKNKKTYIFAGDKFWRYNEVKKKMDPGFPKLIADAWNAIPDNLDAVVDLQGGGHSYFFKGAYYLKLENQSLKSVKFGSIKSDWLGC

[6] = molecular target: Prothrombin (Bos taurus, UniProt P00735); experiment: thrombin inhibition, dose response, biochemical, fluorescence polarization, uHTS hits (AID 602369); type: functional
[7] = molecular target: T1, Microphthalmia-associated transcription factor (Homo sapiens, UniProt O75030); experiment: TRPM1 promoter luciferase signal decrease, dose response, MITF inhibitor project, cell-based, SK-MEL-5, cherry-picked, set 3 (AID 493073); type: functional
T1 sequence (O75030 whole entry): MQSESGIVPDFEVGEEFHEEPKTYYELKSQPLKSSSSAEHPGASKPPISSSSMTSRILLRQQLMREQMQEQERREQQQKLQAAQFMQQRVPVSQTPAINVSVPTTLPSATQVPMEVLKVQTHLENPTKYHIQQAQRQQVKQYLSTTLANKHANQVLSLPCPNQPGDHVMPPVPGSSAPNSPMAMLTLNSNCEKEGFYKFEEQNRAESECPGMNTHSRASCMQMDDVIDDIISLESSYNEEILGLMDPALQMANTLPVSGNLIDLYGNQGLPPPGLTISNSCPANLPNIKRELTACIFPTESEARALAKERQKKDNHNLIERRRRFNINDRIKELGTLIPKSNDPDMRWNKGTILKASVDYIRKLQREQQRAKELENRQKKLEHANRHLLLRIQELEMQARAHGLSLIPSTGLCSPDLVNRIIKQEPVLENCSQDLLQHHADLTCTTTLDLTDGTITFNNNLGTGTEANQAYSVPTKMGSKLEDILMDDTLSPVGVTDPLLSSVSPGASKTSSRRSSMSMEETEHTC

[8] = molecular target: Glucose-6-phosphate 1-dehydrogenase (Homo sapiens, UniProt P11413); experiment: human G6PD enzyme inhibitors, dose response, selectivity assay for P. falciparum G6PD inhibitor project, biochemical, fluorescence (AID 504792); type: functional
Sequence of Glucose-6-phosphate 1-dehydrogenase (P11413 whole entry): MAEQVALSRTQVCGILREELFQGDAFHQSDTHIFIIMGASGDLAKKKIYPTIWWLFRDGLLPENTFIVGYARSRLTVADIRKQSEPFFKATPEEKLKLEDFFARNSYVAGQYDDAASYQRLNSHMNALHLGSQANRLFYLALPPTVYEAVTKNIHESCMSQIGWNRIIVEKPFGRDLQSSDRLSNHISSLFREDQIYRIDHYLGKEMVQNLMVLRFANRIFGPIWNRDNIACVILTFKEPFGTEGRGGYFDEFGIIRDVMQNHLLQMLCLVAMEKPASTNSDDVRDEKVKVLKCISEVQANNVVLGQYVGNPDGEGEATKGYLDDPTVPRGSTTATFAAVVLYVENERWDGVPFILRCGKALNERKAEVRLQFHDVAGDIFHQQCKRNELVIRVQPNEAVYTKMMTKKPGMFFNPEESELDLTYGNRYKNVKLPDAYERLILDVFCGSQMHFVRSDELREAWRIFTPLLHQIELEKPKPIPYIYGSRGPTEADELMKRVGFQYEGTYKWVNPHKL

[9] = system: HeLa; experiment: HeLa cell cytotoxicity, dose response, cytotoxicity control for MITF activator project, CellTiter-Glo luminescence, cherry-pick samples (AID 540259); type: functional, cell-based; conditions: Homo sapiens
[10] = Luminescence Cell-Based Dose Confirmation HTS to Identify Activators of 5'UTR Stem-Loop Driven Alpha-Synuclein mRNA Translation in H4 Neuroglioblastoma Cells. [Related pubchem assays: 1829 (Project Summary), 1814 (Primary HTS)]; type: functional
[11] = Luminescence Cell-Based Dose Response HTS to Identify Activators of Luciferase Translation or Activity in H4 […] Cells. [Related pubchem assays: 1829 (Project Summary), 1814 (Primary HTS)]; type: functional
[12] = system: H4; experiment: Luminescence Cell-Based Dose Response HTS to Identify Activators of 5'UTR Stem-Loop Driven Prion Protein mRNA Translation in H4 Neuroglioblastoma Cells. [Related pubchem assays: 1829 (Project Summary), 1814 (Primary HTS)]; type: functional; conditions: Homo sapiens
[13] = inhibitors of intracellular T. cruzi replication, confirmation, NIH3T3 host cells, beta-gal luminescence (AID 2044); type: functional, cell-based;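 note: intracellular parasites grown in NIH/3T3 mouse fibroblasts as host cells; luminescent beta-galactosidase reporter signal from transgenic T. cruzi replicating inside host cells; inhibitors lower the luminescence signal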
[14] = cytotoxicity toward NIH3T3 fibroblasts, dose response, counter-screen, cell-based, ATP luminescence, mouse fibroblasts (AID 2010); type: functional;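 note: cells exposed to compound for about 90 hours before reading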
[15] = Shn3 3'UTR reporter inhibitors, dose response, cell-based, Clone20 osteoblasts, firefly luciferase, cherry-picked (AID 624132); type: functional;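 note: firefly luciferase luminescence from reporter carrying the Shn3 3'UTR in osteoblasts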
[16] = HepG2 cell cytotoxicity, dose response, cytotoxicity control for Shn3 inhibitor project, CellTiter-Glo, cherry-picked (AID 624134); type: functional, cell-based
[17] = control 3'UTR Renilla luciferase suppression, dose response, counter-screen for Shn3 inhibitor project, cell-based, Clone20-Shn3RL, cherry-picked (AID 624133); type: functional

COc1ccc(-c2oc3ncnc(NCCN4CCOCC4)c3c2-c2ccc(OC)cc2)cc1
AC50 [1]: 9.19 µM (active) | IC50 [2]: > 79 µM (inactive)

O=C1CCCc2ccccc2N1Cc1cccc(Cl)c1
AC50 [3]: inconclusive

Cc1sc2nc(CSCC(=O)Nc3ccccc3C#N)[nH]c(=O)c2c1C
IC50 [4]: 6.2 µM (active) | IC50 [5]: > 100 µM (inactive) | IC50 [6]: 8.26 µM (active)

Cc1ccc(-c2nnc(O)c3ccccc23)cc1S(=O)(=O)NCC1CCCO1 (configuration not stated)
AC50 [7]: 53.2 µM (active) | IC50 [2]: 15.3 µM (active)

Cc1cc(SCC(=O)N/N=C/c2ccco2)nc2ccccc12
IC50 [8]: 57.4 µM (inactive)

CC1CCN(C(=O)/C(=C\c2cccs2)NC(=O)c2ccccc2)CC1
AC50 [1]: > 350 µM (inactive)

N#Cc1cc(C#N)c(N2CCN(c3ccccn3)CC2)nc1N
AC50 [9]: 31.7 µM (active)

CC(=O)c1sc(N/N=C/c2cccc(O)c2)nc1C
EC50 [10]: 6.61 µM (active) | EC50 [11]: 8.4 µM (active) | EC50 [12]: 23.2 µM (active) | AC50 [9]: 77.2 µM (active)

Cl.OCCN1CCN(CCOc2cccc(Cl)c2)CC1
EC50 [13]: 0.413 µM (active) | EC50 [14]: > 60 µM (inconclusive) | AC50 [3]: inconclusive

Cc1cc(Cl)ccc1NC(=O)CN1CCC(C(O)(c2ccccc2)c2ccccc2)CC1
AC50 [3]: inconclusive

Cc1cc2c(cc(C(=O)OC(C(=O)NC3CCCCC3)C(C)C)n2C)o1 (configuration not stated)
AC50 [15]: 5.9 µM (active) | AC50 [16]: 55.8 µM (active) | AC50 [17]: 7.23 µM (active)
